# According to patent publication US10517861B2, “Biomarkers for predicting and assessing responsiveness of endometrial cancer subjects to lenvatinib compounds” (Eisai R&D Management Co., Ltd., priority 2013, dated 2019):
# Legend:
# [1] = test system: cytokine, chemokine and angiogenic factors (CAFs); test: Plasma cytokine, chemokine and angiogenic factor (CAF) levels pre- and post-treatment with E7080 (ELISA and multiplex); assay type: in vivo, human; conditions: cycle 2 day 1 vs cycle 1 day 1 (baseline), 122 patients
# Source text: (§1) The purpose of this analysis was to measure cytokine, chemokine and angiogenic factors in blood samples, such as plasma and serum, obtained from patients in clinical trials at both pre- and post-treatment with E7080 and to identify blood biomarkers which can be used to predict whether patients will respond to treatment with E7080. For these analyses, the following criteria of response were employed, namely:
# Materials and Methods: Patients who had metastatic/unresectable endometrial cancer after 1 or 2 prior platinum-based treatments received lenvatinib until disease progression or development of unmanageable toxicities. Patients received E7080 at a starting dose of 24 mg orally once daily in 28 day cycles. 133 patients were treated and evaluated for efficacy and molecular correlative analysis. This study was a part of the Phase 2 multicenter study of lenvatinib (ClinicalTrial.gov Identifier: NCT01111461). Baseline and post-treatment plasma samples were collected for molecular analyses. […] The association of progression free survival (PFS) and overall survival (OS) were analyzed. […] The ELISA plates were measured using a Molecular Devices UVmax kinetic microplate reader with SoftMax Pro 5.2 software. […] Final protein concentrations (pg/mL) were calculated from the standard curve for each assay. […]
# [2] = test system: patients with advanced or recurrent endometrial cancer (EC); test: Phase II study of E7080 in patients with advanced or recurrent endometrial cancer: tumor response (ORR) and survival (PFS, OS); assay type: in vivo, human
# Method: Purpose: Angiogenesis is regulated by signaling through multiple growth factor receptors, such as VEGF receptor and FGF receptor. VEGF receptor signaling is also associated with immune cell function. E7080 is an oral angiogenesis inhibitor targeting multiple receptor tyrosine kinase; VEGFR1-3, FGFR1-4, RET, KIT, and PDGFRβ. A phase II study was performed in patients with advanced or recurrent endometrial cancer (EC) following 1 or 2 prior platinum-based treatments (Tx). The importance of angiogenesis in EC highlights the need to understand clinical mechanisms of escape from anti-angiogenic therapy. This clinical biomarker analysis was conducted to identify predictive markers of clinical benefit in EC patients upon E7080 treatment. Circulating cytokine and angiogenic factors (CAFs) can be measured in blood samples using ELISA and multiplex assay platforms. The CAFs examined in this study are listed below in Table 2. Numbers in parenthesis indicate bead region for each analyte.
# as §1
# (a) Tumor response: objective response rate (ORR) and % of maximum tumor shrinkage (MTS); and
# (b) Survival Benefits: progression free survival (PFS)/overall survival (OS).
# Materials and Methods: Patients who had metastatic/unresectable endometrial cancer after 1 or 2 prior platinum-based treatments received lenvatinib until disease progression or development of unmanageable toxicities. Patients received E7080 at a starting dose of 24 mg orally once daily in 28 day cycles. 133 patients were treated and evaluated for efficacy and molecular correlative analysis. This study was a part of the Phase 2 multicenter study of lenvatinib (ClinicalTrial.gov Identifier: NCT01111461). Baseline and post-treatment plasma samples were collected for molecular analyses. Plasma samples were collected at Cycle 1 Day 1 (pre-treatment) and Cycle 2 Day 1 (i.e., day […] post-treatment). Six mL of intravenous blood was drawn into EDTA vacutainer tubes. The tubes were gently inverted 6-8 times and then centrifuged at 3000 RPM for 10 minutes to separate the plasma from the red cell layer. Plasma was collected from the tube and dispensed into a 3.5 mL cryovial using a transfer pipette, and then stored immediately at −20° C. The plasma samples were shipped on dry ice and then ultimately transferred to −80° C. storage. Plasma samples from 122 patients were used for blood biomarker analysis. Serum from Cycle 1 day 1 (baseline), and cycle 2 day 1 were used in this analysis. The association of progression free survival (PFS) and overall survival (OS) were analyzed. Plasma samples were tested in batch format where all timepoints from the same subject were assayed on the same day. On the day of assay, samples were removed from −80° C. and allowed to thaw and reach room temperature. The plasma samples were tested in a panel of ELISA and multiplex kit as per the manufacturer's instructions. The ELISA plates were measured using a Molecular Devices UVmax kinetic microplate reader with SoftMax Pro 5.2 software. The multiplex assays were performed using the Bio-Rad Bio-Plex system with Bio-Plex Manager 4.1 software. Final protein concentrations (pg/mL) were calculated from the standard curve for each assay. Depending on the assay, plasma samples may have been diluted in assay buffer prior to testing. In these cases, protein concentrations were multiplied by the dilution factor.
# A cut-off value of Ang-2 was used to test if patients with baseline Ang-2 levels have better clinical outcomes, such as ORR, PFS, and OS. […]
# [3] = sub-group with high baseline Ang-2 (>2082 pg/ml), 98 patients
# [4] = sub-group with low baseline Ang-2 (<2082 pg/ml), 24 patients
# [5] = without stratification based on Ang-2 levels
structure (smiles),measurement,setting,value
"COc1cc2nccc(Oc3ccc(NC(=O)NC4CC4)c(Cl)c3)c2cc1C(N)=O [E7080, 4-(3-chloro-4-(cyclopropylaminocarbonyl)aminophenoxy)-7-methoxy-6-quinolinecarboxamide]",changes in levels of CAFs at post-treatment compared to pre-treatment,[1],Significant changes in levels of 19 CAFs among 50 CAFs tested
same,Progression-Free Survival (months) Median,[2]; Full Set Analysis (N = 133),5.4 months
same,Objective Response (CR + PR),"[2]; Full Set Analysis (N = 133), 24 mg orally once daily",21.8%
same,Objective Response (CR + PR),[2]; High Ang-2 ≥2082.51 (N = 98),17.8%
same,Overall Survival (months) Median,[2]; High Ang-2 ≥2082.51 (N = 98),8.9 months
same,Progression-Free Survival (months) Median,[2]; High Ang-2 ≥2082.51 (N = 98),3.7 months
same,Objective Response (CR + PR),[2]; Low Ang-2 <2082.51 (N = 24),60.9%
same,Progression-Free Survival (months) Median,[2]; Low Ang-2 <2082.51 (N = 24),9.5 months
same,Median PFS,"[2]; baseline ANG2(90), 0-25% subgroup",225 days
same,mOS (day) in each quartile,"[2]; baseline ANG2(90), 1st (low) quartile",541 days
same,mOS (day) in each quartile,"[2]; baseline ANG2(90), 2nd quartile",353 days
same,mOS (day) in each quartile,"[2]; baseline ANG2(90), 3rd quartile",256 days
same,mOS (day) in each quartile,"[2]; baseline ANG2(90), 4th (high) quartile",260 days
same,Median PFS,"[2]; baseline ANG2(90), 25-50% subgroup",167 days
same,Median PFS,"[2]; baseline ANG2(90), 50-75% subgroup",145 days
same,Median PFS,"[2]; baseline ANG2(90), 75-100% subgroup",77 days
same,Median PFS,"[2]; baseline Ang-2, 0-25% subgroup",284 days
same,mOS (day) in each quartile,"[2]; baseline Ang-2, 1st (low) quartile",541 days
same,mOS (day) in each quartile,"[2]; baseline Ang-2, 2nd quartile",289 days
same,mOS (day) in each quartile,"[2]; baseline Ang-2, 3rd quartile",268 days
same,mOS (day) in each quartile,"[2]; baseline Ang-2, 4th (high) quartile",173 days
same,Median PFS,"[2]; baseline Ang-2, 25-50% subgroup",167 days
same,Median PFS,"[2]; baseline Ang-2, 50-75% subgroup",112 days
same,Median PFS,"[2]; baseline Ang-2, 75-100% subgroup",77 days
same,Median PFS,"[2]; baseline HGF(86), 0-25% subgroup",225 days
same,mOS (day) in each quartile,"[2]; baseline HGF(86), 1st (low) quartile",567 days
same,mOS (day) in each quartile,"[2]; baseline HGF(86), 2nd quartile",452 days
same,mOS (day) in each quartile,"[2]; baseline HGF(86), 3rd quartile",273 days
same,mOS (day) in each quartile,"[2]; baseline HGF(86), 4th (high) quartile",253 days
same,Median PFS,"[2]; baseline HGF(86), 25-50% subgroup",205 days
same,Median PFS,"[2]; baseline HGF(86), 50-75% subgroup",145 days
same,Median PFS,"[2]; baseline HGF(86), 75-100% subgroup",109 days
same,Median PFS,"[2]; baseline IL-8(40), 0-25% subgroup",281 days
same,mOS (day) in each quartile,"[2]; baseline IL-8(40), 2nd quartile",315 days
same,mOS (day) in each quartile,"[2]; baseline IL-8(40), 3rd quartile",340 days
same,mOS (day) in each quartile,"[2]; baseline IL-8(40), 4th (high) quartile",127 days
same,Median PFS,"[2]; baseline IL-8(40), 25-50% subgroup",222 days
same,Median PFS,"[2]; baseline IL-8(40), 50-75% subgroup",145 days
same,Median PFS,"[2]; baseline IL-8(40), 75-100% subgroup",71 days
same,Median PFS,"[2]; baseline IP-10(56), 0-25% subgroup",167 days
same,Median PFS,"[2]; baseline IP-10(56), 25-50% subgroup",174 days
same,Median PFS,"[2]; baseline IP-10(56), 50-75% subgroup",220 days
same,Median PFS,"[2]; baseline IP-10(56), 75-100% subgroup",77 days
same,Median PFS,"[2]; baseline MCP-1(58), 0-25% subgroup",227 days
same,mOS (day) in each quartile,"[2]; baseline MCP-1(58), 1st (low) quartile",463 days
same,mOS (day) in each quartile,"[2]; baseline MCP-1(58), 2nd quartile",393 days
same,mOS (day) in each quartile,"[2]; baseline MCP-1(58), 3rd quartile",340 days
same,mOS (day) in each quartile,"[2]; baseline MCP-1(58), 4th (high) quartile",192 days
same,Median PFS,"[2]; baseline MCP-1(58), 25-50% subgroup",155 days
same,Median PFS,"[2]; baseline MCP-1(58), 50-75% subgroup",167 days
same,Median PFS,"[2]; baseline MCP-1(58), 75-100% subgroup",111 days
same,mOS (day) in each quartile,"[2]; baseline MIP-1a(64), 2nd quartile",293 days
same,mOS (day) in each quartile,"[2]; baseline MIP-1a(64), 3rd quartile",353 days
same,mOS (day) in each quartile,"[2]; baseline MIP-1a(64), 4th (high) quartile",264 days
same,Median PFS,"[2]; baseline MIP-la(64), 0-25% subgroup",210 days
same,Median PFS,"[2]; baseline MIP-la(64), 25-50% subgroup",155 days
same,Median PFS,"[2]; baseline MIP-la(64), 50-75% subgroup",117 days
same,Median PFS,"[2]; baseline MIP-la(64), 75-100% subgroup",166 days
same,Median PFS,"[2]; baseline PGF(91), 0-25% subgroup",170 days
same,mOS (day) in each quartile,"[2]; baseline PGF(91), 2nd quartile",350 days
same,mOS (day) in each quartile,"[2]; baseline PGF(91), 3rd quartile",393 days
same,mOS (day) in each quartile,"[2]; baseline PGF(91), 4th (high) quartile",173 days
same,Median PFS,"[2]; baseline PGF(91), 25-50% subgroup",174 days
same,Median PFS,"[2]; baseline PGF(91), 50-75% subgroup",218 days
same,Median PFS,"[2]; baseline PGF(91), 75-100% subgroup",77 days
same,Median PFS,"[2]; baseline TNFa(80), 0-25% subgroup",282 days
same,mOS (day) in each quartile,"[2]; baseline TNFa(80), 1st (low) quartile",654 days
same,mOS (day) in each quartile,"[2]; baseline TNFa(80), 2nd quartile",353 days
same,mOS (day) in each quartile,"[2]; baseline TNFa(80), 3rd quartile",393 days
same,mOS (day) in each quartile,"[2]; baseline TNFa(80), 4th (high) quartile",218 days
same,Median PFS,"[2]; baseline TNFa(80), 25-50% subgroup",117 days
same,Median PFS,"[2]; baseline TNFa(80), 50-75% subgroup",166 days
same,Median PFS,"[2]; baseline TNFa(80), 75-100% subgroup",112 days
same,Median PFS,"[2]; baseline Tie-2, 0-25% subgroup",273 days
same,mOS (day) in each quartile,"[2]; baseline Tie-2, 1st (low) quartile",541 days
same,mOS (day) in each quartile,"[2]; baseline Tie-2, 2nd quartile",282 days
same,mOS (day) in each quartile,"[2]; baseline Tie-2, 3rd quartile",291 days
same,mOS (day) in each quartile,"[2]; baseline Tie-2, 4th (high) quartile",192 days
same,Median PFS,"[2]; baseline Tie-2, 25-50% subgroup",165 days
same,Median PFS,"[2]; baseline Tie-2, 50-75% subgroup",155 days
same,Median PFS,"[2]; baseline Tie-2, 75-100% subgroup",112 days
same,Median PFS,"[2]; baseline VEGFA(100), 0-25% subgroup",158 days
same,mOS (day) in each quartile,"[2]; baseline VEGFA(100), 1st (low) quartile",350 days
same,mOS (day) in each quartile,"[2]; baseline VEGFA(100), 2nd quartile",541 days
same,mOS (day) in each quartile,"[2]; baseline VEGFA(100), 3rd quartile",365 days
same,mOS (day) in each quartile,"[2]; baseline VEGFA(100), 4th (high) quartile",260 days
same,Median PFS,"[2]; baseline VEGFA(100), 25-50% subgroup",205 days
same,Median PFS,"[2]; baseline VEGFA(100), 50-75% subgroup",165 days
same,Median PFS,"[2]; baseline VEGFA(100), 75-100% subgroup",83 days
same,Median PFS,"[2]; baseline sIL-2Ra(76), 0-25% subgroup",210 days
same,mOS (day) in each quartile,"[2]; baseline sIL-2Ra(76), 1st (low) quartile",562 days
same,mOS (day) in each quartile,"[2]; baseline sIL-2Ra(76), 2nd quartile",295 days
same,mOS (day) in each quartile,"[2]; baseline sIL-2Ra(76), 3rd quartile",387 days
same,mOS (day) in each quartile,"[2]; baseline sIL-2Ra(76), 4th (high) quartile",161 days
same,Median PFS,"[2]; baseline sIL-2Ra(76), 25-50% subgroup",161 days
same,Median PFS,"[2]; baseline sIL-2Ra(76), 50-75% subgroup",177 days
same,Median PFS,"[2]; baseline sIL-2Ra(76), 75-100% subgroup",72.5 days
same,ORR,[2]; sub-group with high baseline Ang-2 (>2082 pg/ml),18%
same,mean OS,[2]; [3],8.9 months
same,mean PFS,[2]; [3],3.7 months
same,ORR,[2]; sub-group with low baseline Ang-2 (<2082 pg/ml),61%
same,mean OS,[2]; [4],23 months
same,mean PFS,[2]; [4],9.5 months
same,ORR,[2]; [5],21.1%
same,mOS,[2]; [5],10.6 months
same,mPFS,[2]; [5],5.4 months
